Literature values, collected in patent publication US12194020B2, “Reversing baldness through cannabinoid receptor activation” (priority 2017, dated 2025).

Tests used:
CB2 = CB2 (Homo sapiens, UniProt P34972)
NO production = conditions: read-out: IC50, inhibits NO production
[1] = bimatoprost applied to the base of the fingernails
[2] = test system: human scalp hair follicles (HF); conditions: human HF organ culture

CB2, sequence (P34972 whole entry, species assumed): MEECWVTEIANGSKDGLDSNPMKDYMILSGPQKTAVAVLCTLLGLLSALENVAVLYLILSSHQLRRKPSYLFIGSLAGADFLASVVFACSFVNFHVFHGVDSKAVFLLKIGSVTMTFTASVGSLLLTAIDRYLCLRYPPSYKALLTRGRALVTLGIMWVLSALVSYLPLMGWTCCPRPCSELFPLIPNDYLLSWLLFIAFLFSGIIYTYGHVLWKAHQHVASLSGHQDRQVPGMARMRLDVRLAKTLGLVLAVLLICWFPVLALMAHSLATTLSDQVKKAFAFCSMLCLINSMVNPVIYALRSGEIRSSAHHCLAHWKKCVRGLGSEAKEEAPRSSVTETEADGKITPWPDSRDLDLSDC

Compound: Cc1c(C(=O)NN2CCCCC2)nn(-c2ccc(Cl)cc2Cl)c1-c1ccc(Cl)cc1 [SR141716A]
- affinity for CB2 (CB2): very low affinity

Compound: haplosamate A
- affinity for CB1 (CB1): strong affinity

Compound: desulfohaplosamate
- affinity for CB2 (CB2): higher affinity

Compound: C=CCc1ccc(O)c(-c2cc(CC=C)ccc2O)c1 [magnolol]
- IC50 (NO production): ~6.2 µM

Compound: CCNC(=O)CCC/C=C\C[C@@H]1[C@@H](/C=C/[C@@H](O)CCc2ccccc2)[C@H](O)C[C@@H]1O [bimatoprost]
- increase in fingernail growth from baseline [1]: 16.9%

Compound: CCCCC/C=C\C/C=C\C/C=C\C/C=C\CCCC(=O)NCCO [AEA, N-arachidonoylethanolamide]
- apoptosis of cultured human HF / hair matrix keratinocytes [2]: stimulates apoptosis
- hair matrix / HF keratinocyte proliferation [2]: significantly (P<0.05) and dose-dependently inhibited
- hair shaft elongation [2]: significantly (P<0.05) and dose-dependently inhibited

Compound: CCCCCc1cc(O)c2c(c1)OC(C)(C)[C@@H]1CCC(C)=C[C@@H]21 [THC, Δ^9-tetrahydrocannabinol]
- apoptosis of cultured human HF / hair matrix keratinocytes [2]: induced
- catagen development [2]: premature catagen development
- hair matrix / HF keratinocyte proliferation [2]: suppressed proliferation
- hair shaft elongation [2]: significantly inhibited
